From patent US20110218215A1, “Compositions and Methods for Treating Social Anxiety” (priority 2010, published 2011)

System: performance anxiety in the context of public speaking
Assay: Open clinical trial: oral doses taken before public speaking, subject self-reports
Assay type: in vivo, human
Conditions: Subject 2, 40 mg propranolol HCl alone
Source text: Subjects were selected based on their history of experiencing performance anxiety in the context of public speaking. Subjects received oral doses of the present composition, as described below, at various times prior to speaking engagements. The parameters assessed included but were not limited to the following: tremor of voice and hands, urinary and/or fecal urgency, tachycardia, anxiety, and side effects (e.g., dry mouth).

## CC(C)NCC(O)COc1cccc2ccccc12.Cl (racemic) [propranolol HCl, (RS)-1-(isopropylamino)-3-(1-naphthyloxy)propan-2-ol]
Ninety minutes prior
  fecal urgency: did report fecal urgency
  quality of presentation: less colorful and confident presentation
  voice tremor: no tachycardia or voice tremor
Ninety minutes prior to public speaking
  tachycardia: no tachycardia
